Measurements taken from US9643951B2, “Compound having somatostatin receptor agonistic activity and pharmaceutical use thereof” (ONO PHARMACEUTICAL CO., LTD., priority 2013, dated 2017).

Key:
human SSTR2 = target: T1, human SSTR2 (Homo sapiens, UniProt P30874); experiment: Evaluation of SSTR2 agonistic activity using cells expressing human SSTR2 (suppression of forskolin-stimulated cAMP production, SSTR2-CHO-K1); format: cell-based
T1 construct: Myc; expressed in transfected cells
Description: Evaluation of SSTR2 Agonistic Activity Using Cells Expressing Human SSTR2
(1) Isolation of Human SSTR2 Gene
Human brain cDNA was purchased from Ambion (catalogue No.: 7962; Lot No.: 040200121). PCR primers, hSSTR2_F1_XhoI: 5′-[…]-3′ (SEQ ID NO: 1) and hSSTR2_R1_EcoRI: 5′-[…]-3′ (SEQ ID NO: 2) were designed on the basis of the sequence GenBank NM_001050.
PCR reaction (95° C. for 2 min.→[98° C. for 10 sec., 60° C. for 30 sec. and 68° C. for 90 sec.]×30 cycles) was carried out using the human brain cDNA as a template and using KOD-plus-(TOYOBO Co., Ltd.). The amplified PCR product was subjected to 1% agarose gel electrophoresis, purified using QIAquick Gel Extraction Kit (QIAGEN) and digested with restriction enzymes XhoI and EcoRI. The digested fragments were ligated to an expression vector (pIRESneo-Myc) using the DNA Ligation Kit Ver. 2 (Takara) and used for transformation of E. coli DH5a. The plasmid pIRESneo-Myc/hSSTR2 was prepared and the DNA sequence thereof was confirmed.
(2) Culture of CHO-K1 Cells
CHO-K1 (−) was cultured in Ham's F-12 medium (containing foetal bovine serum (10%), penicillin (100 U/mL) and streptomycin (0.1 mg/mL)). The transduced cells were cultured in the same medium supplemented with Geneticin (1 mg/mL).
(3) Transduction of CHO-K1 Cells
CHO-K1(−) cells were transduced with the plasmid pIRESneo-Myc/hSSTR2 using Lipofectamine 2000 (Invitrogen). After 48 hours, selection was carried out by replacing the medium with the one containing 1 mg/mL of Geneticin to establish a stable overexpressing cell line (SSTR2-CHO-K1).
(4) Evaluation of SSTR2 Agonistic Activity
The human SSTR2 agonistic activity of a test compound was evaluated according to the following procedures by using a suppression activity of intracellular cyclic AMP (cAMP) production by forskolin stimulation as an index. SSTR2-CHO-K1 cells suspended in Ham's F-12 medium (containing foetal bovine serum (10%), penicillin (100 U/mL) and streptomycin (0.1 mg/mL)) supplemented with 0.25 mg/mL of Geneticin were inoculated into a 96-well plate at a density of 4.0×10^4 cells/0.1 mL per well. On the next day, the medium was removed and washed twice with 0.1 mL of wash buffer [0.1% bovine serum albumin (BSA), 20 mmol/L 4-(2-hydroxyethyl)-1-piperazineethane sulphonic acid (HEPES)-containing Hank's balanced salt solution (HBSS)]. An assay buffer [[…] 3-isobutyl-1-methylxanthine (IBMX), 0.1% BSA, 20 mmol/L HEPES-containing HBSS] was added to the wells at 0.06 mL per well and the plate was incubated for 15 minutes under the conditions of 5% carbon dioxide and 37° C. Thereafter, an assay buffer containing a test compound at a concentration twice as high as the final concentration and 0.02 mmol/L of forskolin was added to wells at 0.06 mL per well and the plate was incubated for 30 minutes under the conditions of 5% carbon dioxide and 37° C. Thereafter, the Assay/Lysis buffer included in the cAMP-Screen® kit (available from Applied Biosystems) was added to wells at 0.12 mL per well and the plate was incubated for 30 minutes under the conditions of 5% carbon dioxide and 37° C. The concentration of cAMP in samples were measured by ELISA according to the instruction of the kit.

[1] = test system: growth hormone (GH) secretion; experiment: Evaluation of suppression of growth hormone (GH) secretion using rats (GHRH-induced); format: in vivo; conditions: Rattus norvegicus, Procedure (B): oral administration 8 hours beforehand, 1 mg/kg, read-out: percentage of suppression of GH secretion
Description: Evaluation of Suppression of Growth Hormone (GH) Secretion Using Rats
[Procedure (A): Administration of a Test Compound 30 Minutes Beforehand]
A medium (distilled water (Otsuka distilled water, Otsuka Pharmaceutical Factory, […]) IGS rats (Charles River Laboratories Japan, Inc.)) and after 27 minutes, the animals were administered with 50 mg/kg of pentobarbital sodium (Somnopentyl, Kyoritsu Seiyaku Corporation) via the tail vein for anaesthesia. Three minutes after administration of pentobarbital sodium, the rats were administered with 0.01 mg/kg of growth hormone-releasing hormone (GHRH, Bachem) via the tail vein to induce GH secretion. In order to measure the blood GH concentration, 0.2 mL of blood was collected through the jugular vein at 5 minutes after administration of GHRH. The collected blood was centrifuged at 4° C., 13,000×g for 5 minutes to obtain plasma. The blood GH concentration was measured by using Rat/Mouse Growth Hormone ELISA (Millipore) following the instruction of the kit. The percentage (%) of suppression of GH secretion was determined by using the obtained blood GH concentration and the equation {[suppression (%) of GH secretion]=([blood GH concentration of the group administered with the medium]−[blood GH concentration of the group administered with a test compound])/[blood GH concentration of the group administered with the medium]×100}. In the equation, the group administered with the medium represents the group of animals administered with the medium and the group administered with a test compound represents the group of animals administered with a test compound dissolved in the medium.
[Procedure (B): Administration of a Test Compound 8 Hours Beforehand]
A medium (distilled water (Otsuka distilled water, Otsuka Pharmaceutical Factory, […]) IGS rats (Charles River Laboratories Japan, Inc.)) and after 7 hours and 57 minutes, the animals were administered with 50 mg/kg of pentobarbital sodium (Somnopentyl, Kyoritsu Seiyaku Corporation) via the tail vein for anaesthesia. Three minutes after administration of pentobarbital sodium, the rats were administered with 0.01 mg/kg of growth hormone-releasing hormone (GHRH, Bachem) via the tail vein to induce GH secretion. The rest of the procedure is the same as in [Procedure (A)] described above.

[2] = Evaluation of cytotoxicity using cultured human hepatocytes (intracellular ATP); format: cell-based; conditions: read-out: IC50 of cytotoxicity (concentration at which 50% of the luminescence is suppressed)
Description: Evaluation of Cytotoxicity Using Cultured Human Hepatocytes
Frozen adhesive human hepatocytes were thawed, suspended in a hepatocellular medium (HCM) purchased from Lonza and inoculated to a 96-well plate coated with collagen. The culture medium of the hepatocytes cultured overnight in an incubator (5% carbon dioxide, 95% air, 37° C.) was exchanged to the medium containing a test compound at a concentration of 0, 12.5, 25, 50, 100, 200 or 400 (×10^−6 mol/L) and the cells were further cultured for 24 hours. Cytotoxicity was evaluated by measuring the intracellular ATP concentration. Specifically, using the Promega Celltiter-Glo luminescent assay kit available from Promega, cells were lysed in the assay buffer included in the kit and the concentration of ATP released from the cells was measured according to the luminescence resulting from luciferin-luciferase enzyme activity. The luminescence was measured on the SpectraMax plate reader from Molecular Devices. The extent of cytotoxicity of a test compound is represented by the concentration (IC50) of the compound at which 50% of the luminescence is suppressed.

[3] = Human hepatic microsome stability test; format: in vitro ADME; conditions: human hepatic microsomes 1 mg/mL; 60 minutes; test compound 0.001 mmol/L; 37° C.
Description: Human Hepatic Microsome Stability Test
To a reaction vessel heated to 37° C. in a water bath, 0.392 mL of phosphate buffer (0.1 mol/L, pH 7.4) containing human hepatic microsomes (1 mg/mL, Xenotech) and NADPH-Co-factor (NADP+1.3 mmol/L, BD-Bioscience) was added and pre-incubated for 5 minutes. A 50% acetonitrile solution (0.008 mL) containing 0.05 mmol/L of a test compound was added thereto to initiate the enzyme reaction (final concentration of the test compound: 0.001 mmol/L). Immediately after initiation of the reaction and at 60 minutes thereafter, 0.050 mL of the reaction solution was respectively collected, which was immediately added to an acetonitrile solution (0.2 mL) containing an internal standard (45 nmol/L, 1-[3-(3,5-dimethylphenyl)-4-quinolinyl]-4-piperidineamine) to terminate the enzyme reaction.
The residual rate (%), which is indicative of stability of the test compound, was calculated using the ratio of peak areas between the test compound and the internal substance determined by LC/MS/MS (TSQ Quantum Discovery MAX, Thermo) analysis of the sample thus prepared by the above procedures followed by filtration, and the equation: {[residual rate (%)=[peak area of a test compound in a sample at 60 minutes after initiation of the reaction/peak area of the internal standard]/[peak area of the test compound in the sample immediately after initiation of the reaction/peak area of the internal standard]×100}.

T1 sequence (P30874 whole entry): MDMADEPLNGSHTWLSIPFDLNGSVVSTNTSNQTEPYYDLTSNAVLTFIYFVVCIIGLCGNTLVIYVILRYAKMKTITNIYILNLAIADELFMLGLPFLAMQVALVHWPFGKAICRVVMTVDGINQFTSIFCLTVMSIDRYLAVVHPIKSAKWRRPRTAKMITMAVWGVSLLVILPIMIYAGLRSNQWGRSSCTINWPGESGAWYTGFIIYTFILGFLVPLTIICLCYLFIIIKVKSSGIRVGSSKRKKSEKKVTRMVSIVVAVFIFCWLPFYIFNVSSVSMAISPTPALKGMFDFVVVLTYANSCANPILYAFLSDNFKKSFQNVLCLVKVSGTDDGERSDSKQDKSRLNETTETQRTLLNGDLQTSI

Row | SMILES | EC50 (human SSTR2) | inhibition in vivo at 1 mg/kg [1] | IC50 at 24 h [2] | residual rate [3]
1 | CO[C@@H]1CN(c2c(-c3ccc(C(F)(F)F)cc3)cncc2-c2cc(Cl)cc(Cl)c2)CC[C@H]1N (racemic) [Example 2(6), rac-(3R,4R)-1-{3-(3,5-dichlorophenyl)-5-[4-(trifluoromethyl)phenyl]-4-pyridinyl}-3-methoxy-4-piperidineamine] | 0.47 nM | – | – | –
2 | CO[C@@H]1CN(c2c(-c3ccc(C(F)(F)F)cc3)cncc2-c2cc(Cl)cc(Cl)c2)CC[C@@H]1N (racemic) [Example 2(7), rac-(3R,4S)-1-{3-(3,5-dichlorophenyl)-5-[4-(trifluoromethyl)phenyl]-4-pyridinyl}-3-methoxy-4-piperidineamine] | 0.17 nM | – | – | –
3 | NC1CCN(c2c(-c3ccc(C(F)(F)F)cc3)cncc2-c2cc(Cl)cc(Cl)c2)CC1 [Example 1, 1-{3-(3,5-dichlorophenyl)-5-[4-(trifluoromethyl)phenyl]-4-pyridinyl}-4-piperidineamine] | 0.031 nM | 93% | 19000 nM | 94.6%
4 | NC1CCN(c2c(-c3ccc(OC(F)F)cc3)cncc2-c2cc(F)cc(Cl)c2)CC1 [Example 2(1), 1-{3-(3-chloro-5-fluorophenyl)-5-[4-(difluoromethoxy)phenyl]-4-pyridinyl}-4-piperidineamine] | 0.041 nM | 91% | 19000 nM | 100.0%
5 | N#CC1(c2ccc(-c3cncc(-c4cc(Cl)cc(Cl)c4)c3N3CCC(N)CC3)cc2)CC1 [Example 2(2), 1-{4-[4-(4-amino-1-piperidinyl)-5-(3,5-dichlorophenyl)-3-pyridinyl]phenyl}cyclopropanecarbonitrile] | 0.013 nM | 93% | 11000 nM | 100.0%
6 | NC1CCN(c2c(-c3ccc(OC(F)F)cc3)cncc2-c2cc(Cl)cc(Cl)c2)CC1 [Example 2(3), 1-{3-(3,5-dichlorophenyl)-5-[4-(difluoromethoxy)phenyl]-4-pyridinyl}-4-piperidineamine] | 0.021 nM | 88% | 9000 nM | 96.4%
7 | CC(C)(C#N)c1ccc(-c2cncc(-c3cc(Cl)cc(Cl)c3)c2N2CCC(N)CC2)cc1 [Example 2(4), 2-{4-[4-(4-amino-1-piperidinyl)-5-(3,5-dichlorophenyl)-3-pyridinyl]phenyl}-2-methylpropanenitrile] | 0.024 nM | 88% | 13000 nM | 94.0%
8 | N#CC1(c2ccc(-c3cncc(-c4cc(Cl)cc(Cl)c4)c3N3CC[C@@H]4NCCO[C@H]4C3)cc2)CC1 [Example 2(5), 1-(4-{5-(3,5-dichlorophenyl)-4-[(4aS,8aS)-octahydro-6H-pyrido[3,4-b][1,4]oxazin-6-yl]-3-pyridinyl}phenyl)cyclopropanecarbonitrile] | 0.05 nM | 85% | 19000 nM | 53.1%
9 | NC1CCN(c2c(-c3ccc(C(F)(F)F)cc3)cncc2-c2cc(F)cc(Cl)c2)CC1 [Example 2, 1-{3-(3-chloro-5-fluorophenyl)-5-[4-(trifluoromethyl)phenyl]-4-pyridinyl}-4-piperidineamine] | 0.083 nM | 93% | 10000 nM | 88.0%
10 | N#Cc1cccc(/C=C/c2cncc(-c3cc(Cl)cc(Cl)c3)c2N2CCC(N)CC2)c1 [Example 4(1), 3-{(E)-2-[4-(4-amino-1-piperidinyl)-5-(3,5-dichlorophenyl)-3-pyridinyl]vinyl}benzonitrile] | 0.038 nM | 84% | – | 49.9%
11 | N[C@@H]1CCN(c2c(-c3ccc(C(F)(F)F)cc3)cncc2-c2cc(Cl)cc(Cl)c2)C[C@@H]1O [Example 6, (3S,4R)-4-amino-1-{3-(3,5-dichlorophenyl)-5-[4-(trifluoromethyl)phenyl]-4-pyridinyl}-3-piperidinol] | 0.027 nM | 89% | – | 89.9%
12 | Cc1cc(C)cc(-c2cnc3cc(Cl)c(-c4cnn(C)c4)cc3c2OCC[C@H]2CCCCN2)c1 [formula (M), reference compound] | – | – | 13000 nM | –
13 | Cc1cc(C)cc(-c2cncc(-c3nc4c(C)cc(C)cc4[nH]3)c2N2CCC(N)CC2)c1 [formula (P), reference compound] | – | – | – | 1.2%
